As usually defined, the Ki is a measure of affinity in units of concentration, obtained from inhibition or displacement. Higher therefore signals lower affinity.

For this test, the target named is MC4R (Homo sapiens, UniProt P32245). Nature of the test: Binding affinity (125I-NDP-α-MSH displacement, membranes of HEK-293 cells expressing MC4R). Details: expressed in transfected cells; host or cells: HEK-293 cells, membrane preparation. Conditions: 0.02 nM 125I-NDP-α-MSH, 37° C. for two hours, pH 7.0. The source says: Five subtypes of melanocortin receptor (MCR) in vivo are known, and it is known that MC4R, which is Subtype 4, is involved in energy metabolism and weight control. Since other MCR subtypes are involved in the regulation of various functions in vivo such as skin pigmentation, energy homeostasis, and exocrine functions, securing selectivity for MC4R of MC4R agonist compounds is very important in preventing possible side effects in the future. Therefore, the receptor binding abilities of MC4R agonists for each MCR subtype were measured.
Chain of MC4R (P32245 whole entry): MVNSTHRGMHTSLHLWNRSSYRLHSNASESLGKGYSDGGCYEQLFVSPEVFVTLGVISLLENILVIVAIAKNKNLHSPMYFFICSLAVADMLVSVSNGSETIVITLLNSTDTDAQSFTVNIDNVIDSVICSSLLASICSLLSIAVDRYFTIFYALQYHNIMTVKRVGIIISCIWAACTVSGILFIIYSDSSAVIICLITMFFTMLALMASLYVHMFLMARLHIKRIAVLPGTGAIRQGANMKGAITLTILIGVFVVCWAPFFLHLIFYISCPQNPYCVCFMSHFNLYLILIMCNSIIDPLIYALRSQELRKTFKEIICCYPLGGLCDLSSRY
After the CHO-K 1 cell line expressing human recombinant MC1R and the HEK-293 cell lines expressing MC3R, MC4R and MC5R were established, membranes were collected from each cell line. In a 96-well cell culture plate, 3 μg MC1R membrane and 0.04 nM ^125I-NDP-α-MSH per well were reacted at 37° C. for two hours. 3 μg MC3R and MC5R membrane and 0.035 nM ^125I-NDP-α-MSH were reacted at 37° C. for one hour, and […] MC4R membrane and 0.02 nM ^125I-NDP-α-MSH were reacted at 37° C. for two hours. At this time, 25 mM HEPES-KOH adsorption buffer (pH 7.0) containing MCR agonist diluted at each step concentration was added to each well and reacted. The reacted solution was transferred to a filter and washed with an adsorption buffer, and then radioactivity was measured. The value excluding the non-specific binding amount in the presence of 1 μM (MC1R) and 3 μM (MC3R, MC4R, MC5R) of NDP-α-MSH from each total binding amount was used as specific binding amounts of ^125I-NDP-α-MSH. The degree to which the ^125I-NDP-a-MSH specific binding was inhibited by the agonist diluted at each step concentration was measured. IC50 was expressed as the concentration of each agonist that inhibited specific binding of 50% of ^125I-NDP-α-MSH.
Tables 4-1 and 4-2 show the results of measuring the binding of melanocortin receptors of the compounds obtained by the above experiment in Ki (nM) units.

Where a name gives a salt, the structure may show the parent alone.

Under “Table 4-1”, `CC(C)(C)C(=O)N([C@H]1C[C@@H](C(=O)N2CCOCC2)N(C(=O)[C@@H]2CN(C(C)(C)C)C[C@H]2c2ccc(F)cc2F)C1)[C@H]1CC[C@@H](C)CC1` [Example 1, N-((3S,5S)-1-((3S,4R)-1-(tert-butyl)-4-(2,4-difluorophenyl)pyrrolidine-3-carbonyl)-5-(morpholine-4-carbonyl)pyrrolidin-3-yl)-N-((1s,4R)-4-methylcyclohexyl)pivalamide hydrochloride] displayed a Ki of 74 nM. In other words, the double-digit nanomolar range.
Same read-out and setting: as for `CC(C)C(=O)N([C@H]1C[C@@H](C(=O)N2CCOCC2)N(C(=O)[C@@H]2CN(C(C)(C)C)C[C@H]2c2ccc(F)cc2F)C1)[C@H]1CC[C@@H](C)CC1` [Example 2, N-((3S,5S)-1-((3S,4R)-1-(tert-butyl)-4-(2,4-difluorophenyl)pyrrolidine-3-carbonyl)-5-(morpholine-4-carbonyl)pyrrolidin-3-yl)-N-((1s,4R)-4-methylcyclohexyl)isobutyramide hydrochloride], the figure is 240 nM.
Under “Table 4-2”, `CC(C)C(=O)N([C@H]1C[C@@H](C(=O)N2CCOCC2)N(C(=O)[C@@H]2CN(C(C)(C)C)C[C@H]2c2ccc(Cl)cc2F)C1)[C@H]1CC[C@@H](C)CC1` [Example 3, N-((3S,5S)-1-((3S,4R)-1-(tert-butyl)-4-(4-chloro-2-fluorophenyl)pyrrolidine-3-carbonyl)-5-(morpholine-4-carbonyl)pyrrolidin-3-yl)-N-((1s,4R)-4-methylcyclohexyl)isobutyramide hydrochloride] yielded a Ki of 86 nM. This lies in the double-digit nanomolar range.
Take `CC(C)(C)C(=O)N([C@H]1C[C@@H](C(=O)N2CCOCC2)N(C(=O)[C@@H]2CN(C(C)(C)C)C[C@H]2c2ccc(Cl)cc2F)C1)[C@H]1CC[C@@H](C)CC1` [Example 4, N-((3S,5S)-1-((3S,4R)-1-(tert-butyl)-4-(4-chloro-2-fluorophenyl)pyrrolidine-3-carbonyl)-5-(morpholine-4-carbonyl)pyrrolidin-3-yl)-N-((1s,4R)-4-methylcyclohexyl)pivalamide hydrochloride]: affinity (Table 4-1) was put at a Ki of 30 nM.
On to `CC1(C)CCC(N(C(=O)C(C)(C)C)[C@H]2C[C@@H](C(=O)N3CCOCC3)N(C(=O)[C@@H]3CN(C(C)(C)C)C[C@H]3c3ccc(Cl)cc3)C2)CC1` [Example 6, N-((3S,5S)-1-((3S,4R)-1-(tert-butyl)-4-(4-chlorophenyl)pyrrolidine-3-carbonyl)-5-(morpholine-4-carbonyl)pyrrolidin-3-yl)-N-(4,4-dimethylcyclohexyl)pivalamide hydrochloride], for which, under “Table 4-2”, affinity was put at a Ki of 32 nM.

The record behind these values is patent publication US20240190856A1, “MELANOCORTIN-4 RECEPTOR AGONIST” (LG CHEM, LTD., priority 2021, published 2024).
